For the test, the target named is T1, human GlyT1c transporter (Homo sapiens, UniProt P48067).
T1 construct: expressed in transfected cells; host or cells: CHO cells (recombinant; line hGlyT1c_5_CHO is named for the uptake assay)
T1 sequence (P48067 1-706): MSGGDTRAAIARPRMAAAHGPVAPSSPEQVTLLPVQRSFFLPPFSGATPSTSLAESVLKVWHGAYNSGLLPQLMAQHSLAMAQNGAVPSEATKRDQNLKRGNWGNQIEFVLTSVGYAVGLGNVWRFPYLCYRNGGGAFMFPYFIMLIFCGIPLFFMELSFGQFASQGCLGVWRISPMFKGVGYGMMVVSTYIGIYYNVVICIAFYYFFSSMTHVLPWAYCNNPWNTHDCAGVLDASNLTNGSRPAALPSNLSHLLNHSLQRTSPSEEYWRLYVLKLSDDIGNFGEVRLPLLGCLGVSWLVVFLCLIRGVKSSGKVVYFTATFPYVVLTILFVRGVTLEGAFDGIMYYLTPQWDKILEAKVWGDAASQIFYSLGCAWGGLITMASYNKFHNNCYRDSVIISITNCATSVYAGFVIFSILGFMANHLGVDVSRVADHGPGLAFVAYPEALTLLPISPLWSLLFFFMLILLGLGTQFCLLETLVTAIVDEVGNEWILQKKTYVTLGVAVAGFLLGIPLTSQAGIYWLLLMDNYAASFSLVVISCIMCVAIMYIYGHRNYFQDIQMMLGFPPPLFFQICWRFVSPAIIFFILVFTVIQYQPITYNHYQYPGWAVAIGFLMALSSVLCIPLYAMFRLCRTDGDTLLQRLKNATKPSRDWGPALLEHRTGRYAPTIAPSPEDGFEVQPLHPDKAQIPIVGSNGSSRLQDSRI
Kind of test: Radioligand binding assay using recombinant CHO cell membranes expressing human GlyT1. The text has this: 2. Radioligand binding assays using recombinant CHO cell membranes expressing human GlyT1: […]

[1] abbreviates: radioligand binding to human GlyT1c transporter-expressing membranes.
Setting [2] is: radioligand binding, recombinant CHO cell membranes expressing human GlyT1c.

As usually defined, the Ki is the dissociation constant of the complex between target and ligand, obtained from inhibition or displacement. With `Cn1cnc(S(=O)(=O)N2C[C@H](NC(=O)Nc3ccc(Cl)cc3)[C@@H](c3ccc(F)cc3)C2)c1` [Example 701, 1-(4-chlorophenyl)-3-{(3R,4S)-4-(4-fluorophenyl)-1-[(1-methyl-1H-imidazol-4-yl)sulfonyl]pyrrolidin-3-yl}urea], the Ki under setting [1] is at most 1 µM. Same read-out and setting: the figure for `CC(C)Oc1cccc(NC2CN(S(=O)(=O)c3cn(C)cn3)CC2c2ccc(F)cc2)c1` (stereo not shown) [Example 349, 4-(4-fluorophenyl)-1-[(1-methyl-1H-imidazol-4-yl)sulfonyl]-N-[3-(propan-2-yloxy)phenyl]pyrrolidin-3-amine] is at most 0.1 µM.

Consider `CCCS(=O)(=O)N1C[C@@H](NC(=O)c2cc(Cl)cc(Cl)c2)[C@H](c2ccccc2)C1` (relative stereo) [Example 126, 3,5-dichloro-N-[trans-4-phenyl-1-(propylsulfonyl)pyrrolidin-3-yl]benzamide], for which the Ki under setting [1] was at most 10 µM. For the molecule `Cn1cnc(S(=O)(=O)N2C[C@@H](Nc3ccc(F)c(OC(F)(F)F)c3)[C@H](C3CCOC3)C2)c1` (relative stereo) [Example 831, trans -N-[4-fluoro-3-(trifluoromethoxy)phenyl]-1-[(1-methyl-1 H-imidazol-4-yl)sulfonyl] -4-(tetrahydrofuran-3-yl)pyrrolidin-3-amine], under setting [2], the Ki is at most 1 µM. On to `Cn1cnc(S(=O)(=O)N2C[C@@H](NCc3ccc(C(F)(F)F)cc3Cl)[C@H](c3ccccc3F)C2)c1` (relative stereo) [Example 283, trans-N-[2-chloro-4-(trifluoromethyl)benzyl] -4-(2-fluorophenyl)-1-[(1-methyl-1H-imidazol-4-yl)sulfonyl]pyrrolidin-3-amine], for which the Ki under setting [1] is at most 0.1 µM. With `Cn1cnc(S(=O)(=O)N2C[C@@H](Nc3ccc(F)cc3)[C@H](c3ccc(F)cc3)C2)c1` (relative stereo) [Example 92, trans-N,4-bis(4-fluorophenyl)-1-[(1-methyl-1H-imidazol-4-yl)sulfonyl]pyrrolidin-3-amine], under setting [1], the Ki is at most 0.1 µM.

With `Cn1cnc(S(=O)(=O)N2C[C@H](NC(=O)Oc3ccccc3)[C@@H](c3ccc(F)cc3)C2)c1` [Example 693, phenyl {(3R,4S)-4-(4-fluorophenyl)-1-[(1-methyl-1H-imidazol-4-yl)sulfonyl]pyrrolidin-3-yl}carbamate], the Ki under setting [1] was at most 10 µM. Still for that read-out and setting: the figure for `Cn1cnc(S(=O)(=O)N2C[C@@H](NCc3ccc(Cl)cc3Cl)[C@H](c3ccccc3)C2)c1` (relative stereo) [Example 280, trans-N-(2,4-dichlorobenzyl)-1-[(1-methyl-1H-imidazol-4-yl)sulfonyl]-4-phenylpyrrolidin-3-amine] is at most 0.01 µM; for `N#Cc1ccccc1S(=O)(=O)N1C[C@@H](Nc2cc(C(F)(F)F)ccn2)[C@H](c2ccccc2)C1` (relative stereo) [Example 525, 2-{[trans-3-phenyl-4-{[4-(trifluoromethyl)pyridin-2-yl]amino}pyrrolidin-1-yl]sulfonyl}benzonitrile] it is at most 10 µM.

Turning to `Cn1cnc(S(=O)(=O)N2C[C@@H](COc3cc(C(F)(F)F)ccn3)[C@H](c3ccc(F)cc3)C2)c1` (relative stereo) [Example 346, 2-({Trans-4-(4-fluorophenyl)-1-[(1-methyl-1H-imidazol-4-yl)sulfonyl]pyrrolidin-3-yl}methoxy)-4-(trifluoromethyl)pyridine], the Ki under setting [1] is at most 1 µM. With `CCCOCCN[C@H]1CN(S(=O)(=O)c2cn(C)cn2)C[C@@H]1c1ccccc1` [Example 609, (3R,4S)-1-[(1-methyl-1H-imidazol-4-yl)sulfonyl]-4-phenyl-N-(2-propoxyethyl)pyrrolidin-3-amine], the Ki under setting [1] was at most 1 µM. The same measure, in the same setting: the figure for `Cc1nc(CN[C@H]2CN(S(=O)(=O)c3cn(C)cn3)C[C@@H]2c2ccccc2)cs1` [Example 533, (3R,4S)-1-[(1-methyl-1H-imidazol-4-yl)sulfonyl]-N-[(2-methyl-1,3-thiazol-4-yl)methyl]-4-phenylpyrrolidin-3-amine] is at most 10 µM; for `Cn1cnc(S(=O)(=O)N2C[C@@H](Nc3cccc(C(F)(F)F)c3)[C@H](C3CC3)C2)c1` (relative stereo) [Example 337, Trans-4-cyclopropyl-1-[(1-methyl-1H-imidazol-4-yl)sulfonyl]-N-[3-(trifluoromethyl)phenyl]pyrrolidin-3-amine] it is at most 1 µM. In the case of `Cc1cc(N[C@@H]2CN(S(=O)(=O)c3cn(C)cn3)C[C@H]2C2CCCCO2)ccc1F` (relative stereo) [Example 847, Trans-N-(4-fluoro-3-methylphenyl)-1-[(1-methyl-1H-imidazol-4-yl)sulfonyl]-4-(tetrahydro-2H-pyran-2-yl)pyrrolidin-3-amine], the Ki under setting [2] is at most 0.1 µM.

In the case of `Cn1cnc(S(=O)(=O)N2C[C@@H](Nc3cccc(OC(F)(F)F)c3)[C@H](c3ncccc3F)C2)c1` (relative stereo) [Example 799, Trans-4-(3-fluoropyridin-2-yl)-1-[(1-methyl-1H-imidazol-4-yl)sulfonyl]-N-[3-(trifluoromethoxy)phenyl]pyrrolidin-3-amine], the Ki under setting [1] was at most 0.1 µM. Same read-out and setting: as for `Cn1cnc(S(=O)(=O)N2C[C@H](NCCCCC3OCCC(C)(C)O3)[C@@H](c3ccc(F)cc3)C2)c1` (stereo partly drawn) [Example 684, (3R,4S)-N-[4-(4,4-dimethyl-1,3-dioxan-2-yl)butyl]-4-(4-fluorophenyl)-1-[(1-methyl-1H-imidazol-4-yl)sulfonyl]pyrrolidin-3-amine], the figure is at most 1 µM.

On to `Cn1cnc(S(=O)(=O)N2C[C@@H](Nc3ccc(Cl)c(OC(F)(F)F)c3)[C@H](c3ccc(F)cc3)C2)c1` (relative stereo) [Example 306, trans-N-[4-chloro-3-(trifluoromethoxy)phenyl]-4-(4-fluorophenyl)-1-[(1-methyl-1H-imidazol-4-yl)sulfonyl]pyrrolidin-3-amine], for which the Ki under setting [1] is at most 0.1 µM.

In the case of `Cn1cnc(S(=O)(=O)N2C[C@@H](NC(=O)c3ccc(F)cc3)[C@H](c3ccccc3)C2)c1` (relative stereo) [Example 19, 4-fluoro-N-{trans-1-[(1-methyl-1H-imidazol-4-yl)sulfonyl]-4-phenylpyrrolidin-3-yl}benzamide], the Ki under setting [1] is at most 10 µM. The same measure, in the same setting: as for `COCCNC(=O)[C@@H]1CN(S(=O)(=O)c2cn(C)cn2)C[C@H]1c1ccc(F)cc1` [Example 579, (3S,4R)-4-(4-fluorophenyl)-N-(2-methoxyethyl)-1-[(1-methyl-1H-imidazol-4-yl)sulfonyl]pyrrolidine-3-carboxamide], the figure is at most 10 µM. Same read-out and setting: as for `Cn1cnc(S(=O)(=O)N2C[C@@H](Nc3cccnc3)[C@H](c3ccc(F)cc3)C2)c1` (relative stereo) [Example 179, N-{trans-4-(4-fluorophenyl)-1-[(1-methyl-1H-imidazol-4-yl)sulfonyl]pyrrolidin-3-yl}pyridin-3-amine], the figure is at most 10 µM. `Cn1cnc(S(=O)(=O)N2C[C@H](NC(=O)CCCC(F)(F)F)[C@@H](c3ccc(F)cc3)C2)c1` [Example 698, 5,5,5-trifluoro-N-{(3R,4S)-4-(4-fluorophenyl)-1-[(1-methyl-1H-imidazol-4-yl)sulfonyl]pyrrolidin-3-yl}pentanamide]: the Ki under setting [1] is at most 1 µM. Still for that read-out and setting: as for `Cn1cnc(S(=O)(=O)N2C[C@@H](CNc3ccc(Cl)c(OC(F)(F)F)c3)[C@H](c3ccc(F)cc3)C2)c1` (relative stereo) [Example 377, 4-chloro-N-({trans-4-(4-fluorophenyl)-1-[(1-methyl-1H-imidazol-4-yl)sulfonyl]pyrrolidin-3-yl}methyl)-3-(trifluoromethoxy)aniline], the figure is at most 1 µM.

These data come from patent publication EP2970215B1, “PYRROLIDINE DERIVATIVES, PHARMACEUTICAL COMPOSITIONS CONTAINING THEM, AND THEIR USE IN THERAPY” (AbbVie Deutschland GmbH & Co. KG, priority 2013, dated 2014).
